The values that follow come from ChEMBL document CHEMBL3045685, “Discovery of bis-aromatic ring neonicotinoid analogues fixed as cis-configuration: Synthesis, insecticidal activities, and molecular docking studies” (2010).

Each structure is given as a SMILES string. Some results are limits rather than exact numbers.

Common to all, as to format: functional
In assay [1] the test system is Nilaparvata lugens. As to the kind of experiment: In vivo insecticidal activity against fifth-instar larval stage of Nilaparvata lugens (brown planthopper) in second semester rice seedlings assessed as insect mortality at 10 mg/L treated for 5 secs before larval infestation measured after 72 hr.
The subject of assay [2] is Nilaparvata lugens. Nature of the assay: In vivo insecticidal activity against fifth-instar larval stage of Nilaparvata lugens (brown planthopper) in second semester rice seedlings assessed as insect mortality at 100 mg/L treated for 5 secs before larval infestation measured after 72 hr.
Assay [3] deals with Nilaparvata lugens. As to the kind of experiment: In vivo insecticidal activity against fifth-instar larval stage of Nilaparvata lugens (brown planthopper) in second semester rice seedlings assessed as insect mortality at 500 mg/L treated for 5 secs before larval infestation measured after 72 hr.

The term mortality denotes the percentage killed.

In the case of `CCN(Cc1ccc(Cl)nc1)C1=C([N+](=O)[O-])CN(C(C)c2ccccc2)CN1C` (single isomer, unassigned; (+)), the mortality at 10 µg/mL in assay [1] was ≥ 80%. For the same molecule, the mortality at 100 µg/mL in assay [2] was 100%. Further, the mortality at 500 µg/mL in assay [3] turned out to be 100%.
Regarding `CCN(Cc1ccc(Cl)nc1)C1=C([N+](=O)[O-])CN(C2CCCCC2)CN1C`, the mortality at 10 µg/mL in assay [1] was ≥ 60%. In addition, the mortality at 100 µg/mL in assay [2] is ≥ 80%. Also, the mortality at 500 µg/mL in assay [3] was ≥ 90%.
Taken in the same sequence, the figures for `CCN(Cc1ccc(Cl)nc1)C1=C([N+](=O)[O-])CN(C(C)c2ccc(C)cc2)CN1C` (racemic) were ≥ 70%, ≥ 80% and ≥ 90%.
As to `CCN(Cc1ccc(Cl)nc1)C1=C([N+](=O)[O-])CN(c2ccccc2OC)CN1C`, the mortality at 10 µg/mL in assay [1] was ≥ 60%. The mortality at 100 µg/mL in assay [2] was 100%. The mortality at 500 µg/mL in assay [3] worked out at 100%.
With `CCN(Cc1ccc(Cl)nc1)C1=C([N+](=O)[O-])CN(Cc2ccc(OC)cc2)CN1C`, the mortality at 100 µg/mL in assay [2] is ≥ 50%. Further, the mortality at 500 µg/mL in assay [3] was ≥ 90%.
As for `CCN(Cc1ccc(Cl)nc1)C1=C([N+](=O)[O-])CN(Cc2ccccn2)CN1C`, the mortality at 10 µg/mL in assay [1] is ≥ 70%. In addition, the mortality at 100 µg/mL in assay [2] was ≥ 80%. The mortality at 500 µg/mL in assay [3] was determined as 100%.
On the same counts, the results for `CCN(Cc1ccc(Cl)nc1)/C(=C/[N+](=O)[O-])NC` [NITENPYRAM] are 100%, 100% and 100%.
With `CCN(Cc1ccc(Cl)nc1)C1=C([N+](=O)[O-])CN(CCc2ccccc2)CN1C`, the mortality at 10 µg/mL in assay [1] is ≥ 80%. Further, in assay [2], the mortality at 100 µg/mL was 100%. Also, the mortality at 500 µg/mL in assay [3] amounted to 100%.
For the molecule `CCOC(=O)CN1CC([N+](=O)[O-])=C(N(CC)Cc2ccc(Cl)nc2)N(C)C1`, the mortality at 10 µg/mL in assay [1] is ≥ 90%. Further, in assay [2], the mortality at 100 µg/mL was found to be 100%. Further, in assay [3], the mortality at 500 µg/mL was determined as 100%.
Consider `CCN(Cc1ccc(Cl)nc1)C1=C([N+](=O)[O-])CN(c2ccccc2)CN1C`, for which the mortality at 10 µg/mL in assay [1] was ≥ 70%. In assay [2], the mortality at 100 µg/mL was ≥ 90%. Further, the mortality at 500 µg/mL in assay [3] was found to be 100%.
On to `CCN(Cc1ccc(Cl)nc1)C1=C([N+](=O)[O-])CN(c2ccc(F)cc2)CN1C`, for which, in assay [1], the mortality at 10 µg/mL is ≥ 80%. In addition, the mortality at 100 µg/mL in assay [2] turned out to be 100%. In addition, the mortality at 500 µg/mL in assay [3] stood at 100%.
Turning to `CCN(Cc1ccc(Cl)nc1)C1=C([N+](=O)[O-])CN(Cc2ccc(C)cc2)CN1C`, the mortality at 10 µg/mL in assay [1] was ≥ 50%. In assay [2], the mortality at 100 µg/mL was ≥ 70%. Besides, in assay [3], the mortality at 500 µg/mL turned out to be 100%.
`CCN(Cc1ccc(Cl)nc1)C1=C([N+](=O)[O-])CN(Cc2ccccc2)CN1C`: in assay [1], the mortality at 10 µg/mL was ≥ 90%. For the same molecule, the mortality at 100 µg/mL in assay [2] came to 100%. The mortality at 500 µg/mL in assay [3] turned out to be 100%.
For the molecule `CCOC(=O)C(Cc1ccccc1)N1CC([N+](=O)[O-])=C(N(CC)Cc2ccc(Cl)nc2)N(C)C1` (racemic), in assay [1], the mortality at 10 µg/mL was ≥ 60%. The mortality at 100 µg/mL in assay [2] is ≥ 70%. In addition, in assay [3], the mortality at 500 µg/mL is ≥ 80%.
Take `CCN(Cc1ccc(Cl)nc1)C1=C([N+](=O)[O-])CN(Cc2ccc(Cl)nc2)CN1C`: the mortality at 10 µg/mL in assay [1] is ≥ 80%. Besides, the mortality at 100 µg/mL in assay [2] was determined as 100%. For the same molecule, the mortality at 500 µg/mL in assay [3] was found to be 100%.
As to `CCOC(=O)C(CC(C)C)N1CC([N+](=O)[O-])=C(N(CC)Cc2ccc(Cl)nc2)N(C)C1` (racemic), the mortality at 10 µg/mL in assay [1] was < 50%. Further, the mortality at 100 µg/mL in assay [2] was ≥ 50%. For the same molecule, the mortality at 500 µg/mL in assay [3] is ≥ 70%.
